One assay concerns U937/Bcl-2 cells. In words: morphological assessment of apoptosis in Bcl-2 overexpressing cells. It counts as cell-based, human. As to conditions: ara-C 1.0 μM x 6 h. The text has this: (§1) Cell culture. The myelomonocytic leukemia cell line U937 was derived from a patient with histiocytic lymphoma and was obtained from American Type Culture Collection. The HL-60 cell line was derived from a patient with acute promyelocytic leukemia as previously described [Grant et al. 1992]. U937 and HL-60 cells were maintained in logarithmic growth phase by culturing in suspension in phenol red-free RPMI-1640 (Life Technologies, Inc., Grand Island, N.Y.) and 10% (v/v) fetal calf serum (Hyclone, Logan, Utah), in a humidified atmosphere (95% air/5% CO2) at 37° C. To obtain antisense-expressing cell lines, U937 cells were transfected by electroporation with a pREP4 vector (Invitrogen; Carlsbad, Calif.) or the pREP4 vector containing the p21^WAF1/CIP1 coding region in an antisense orientation as previously described [Wang et al. 1999]. […]
(§2) Morphological assessment of apoptosis. U937 cells were evaluated for apoptosis by morphological assessment of Wright and Giemsa-stained cytospin preparations. At designated times, cells were transferred to slides by cytocentrifugation, fixed, stained, and evaluated under light microscopy for treatment-induced apoptosis. […] Five or more randomly selected fields, encompassing a total≧500 cells/slide, were evaluated to determine the percentage of apoptotic cells for each treatment condition.

In assay [1] the test system is HL-60 promyelocytic leukemia cells. As to the kind of experiment: percent cell death. The settings on record: SAHA 1 and 1.5 μM alone or with 100 or 150 nM FP. It counts as cell-based, human.
Assay [2] deals with U937 myelomonocytic human leukemia cells. In words: percent cell death. Type of assay: cell-based. The settings on record: 1 μM SAHA, 100 nM FP, 24 hours after administration.
For assay [3], the system named is U937 cells. As to the kind of experiment: cell cycle analysis (propidium iodide, flow cytometry). Type of assay: cell-based, human. As to conditions: 24 h after administration of SAHA, FP or both. On the procedure:
Cell Cycle Analysis. Following drug treatment, cells were pelleted by centrifugation at 500 g×6 min, and resuspended in 70% ethanol. The cells were incubated on ice for at least 1 h and resuspended in 1 ml cell cycle buffer (0.38 mM Na-Citrate, 0.5 mg/ml RNase A, and 0.01 mg/ml propidium iodide) at a concentration of 10×10^5 cells/ml, stored in the dark at 4 C until analysis (24 h), using a Becton-Dickinson FACScan flow cytometer and Verity Winlist software (Verity Software, Topsham, Me.).

For assay [4], the system named is HL-60 human promyelocytic leukemia cells. In words: morphological assessment of apoptosis. As to conditions: 3, 5, or 10 μM ATRA, 80 nM FP. It counts as cell-based.
Source text: as §1, §2

For a further assay, the system named is ERK1/2. As to the kind of experiment: Western analysis of phosphorylated p44/p42 MAPK in U937 cells. The settings on record: 10 nM PMA, 100 nM FP, 30 min-6 h. It counts as cell-based, human. As to the method:
(§3) Western analysis. Equal quantities of protein (15 μg/condition for MAPK, 40 μg/condition for cytochrome c, or 25 μg/condition) were separated by SDS-PAGE [underphosporylated pRB (7.5%), poly(ADP-ribose)polymerase or PARP (8.0%), p44/p42 MAPK (10%), p21, p27, procaspase 3 (12%), and cytochrome c (15%)] and electroblotted onto nitrocellulose. Western analysis of p44/p42 MAPK protein was performed according to the manufacturer's instructions (New England Biolabs); otherwise, studies were performed as previously described [Wang et al, 1998]. Briefly, U937 cells (5×10^6) were pelleted by centrifugation, resuspended in 50 μl PBS, lysed by the addition of 2× Laemmli buffer and boiled for 5 min. Proteins were quantified with Coomassie protein assay reagent. Blots were blocked in PBS-T/5% milk, washed twice with PBS-T, and incubated overnight at 4° C. with the appropriate primary antibody. The blots were washed with PBS-T and incubated with a horseradish-peroxidase conjugated secondary antibody diluted appropriately in PBS-T/5% mill. Following incubation, blots were developed by enhanced chemiluminescence exposure to Kodak X-OMAT film (Eastman Kodak Co., Rochester, N.Y.) and reprobed with antibodies directed against actin to control for equal loading of protein.

The subject of assay [5] is U937 cells. In words: CD11b surface differentiation marker expression (flow cytometry). It counts as cell-based, human. As to conditions: 24 h; 10 nM PMA alone or with 50 nM FP. As to the method:
(§4) Differentiation studies. Expression of the monocytic differentiation marker, CD11b, was monitored by direct immunofluorescence staining and flow cytometric analysis as previously described [Freemerman et al. 1997]. Following drug treatment, suspension and adherent cells were enumerated by a Coulter Counter and 2×10^6 cells were pelleted by centrifugation. The supernatant was aspirated and the cells were resuspended in 300 μl of ice-cold PBS. Two 100 μl aliquots from each sample were then combined with either phycoerythrin-1 (10 μl) or the IgG control. Samples were incubated for 20 min at 4° C. and diluted in PBS (1 ml). Sample data were collected using a Becton Dickinson FACScan flow cytometer and analyzed with Verity Winlist Software (Verity; Topsham, Me.). […] U937 cells were transfected with a full-length p21^WAF1/CIP1 promoter (base pairs 1-2326) as described by Chinery et al. [Chinery et al. 1997] utilizing electroporation (Eppendorf Multiporator, 620V, 60 μs) in hypoosmolar buffer. In each experiment, pSV-βgal (Promega), containing the β-galactosidase gene under the control of the constitutively active SV40 promoter and enhancer, was co-transfected with the luciferase reporter at a ratio of 1:5 (w/w) to normalize for transfection efficiency. The cells were incubated overnight in complete media and treated with 10 nM PMA, 100 nM FP, or 10 nM PMA/100 nM FP for 3 or 6 h. At indicated times, cells were washed in serum-free media, resuspended in 0.25M Tris-HCl pH 7.8, lysed by rapid freeze-thaw, centrifuged and the supernatant frozen at −70° C. Lysates (20 μL) were mixed with luciferase assay reagent (100 μL) and monitored for 20 seconds in a luminometer (Monolight 2010). For β-galactosidase activity, lysates (50 μL) were mixed in triplicate with an equal volume of luciferase assay buffer (2×) in a 96-well plate and incubated overnight. The reaction was terminated by addition of NaCO3 and absorbance was measured at 405 nm in a Vmax plate reader (Molecular Devices). Activity was determined by comparison to a standard curve. […]
In general terms: A flow cytometer gives signals particle by particle.

The test system of assay [6] is p21WAF1/CIP1 full-length promoter. In words: p21WAF1/CIP1 luciferase reporter assay. Type of assay: cell-based, human. The settings on record: 10 nM PMA, 100 nM FP, 3 and 6 h. As to the method:
as §4, with “In each experiment, pSV-βgal (Promega), containing the β-galactosidase gene under the control of the constitutively active SV40 promoter and enhancer, was co-transfected with the luciferase reporter at a ratio of 1:5 (w/w) to normalize for transfection efficiency. The cells were incubated overnight in complete media and treated with 10 nM PMA, 100 nM FP, or 10 nM PMA/100 nM FP for 3 or 6 h. At indicated times, cells were washed in serum-free media, resuspended in 0.25M Tris-HCl pH 7.8, lysed by rapid freeze-thaw, centrifuged and the supernatant frozen at −70° C.” left out, “For β-galactosidase activity, lysates (50 μL) were mixed in triplicate with an equal volume of luciferase assay buffer (2×) in a 96-well plate and incubated overnight.” left out
For orientation: A reporter such as luciferase makes a cellular process visible.

Assay [7] deals with U937 cells. As to the kind of experiment: clonogenic survival assay. Type of assay: cell-based, human. As to conditions: 24-h exposure; 10 nM PMA alone or 10 nM PMA/100 nM FP. As to the method:
Clonogenic survival assays. Clonogenic survival assays assessed the effects of 10 nM PMA, FP (50 or 100 nM) or PMA/FP co-treatments on leukemic cell self-renewal capacity. Cell densities were determined after 24-h drug treatment using a Coulter Counter (Coulter Electronics, Hialeah, Fla.). Cells were pelleted by centrifugation and resuspended in fresh media to achieve a final cell density of 3×10^5/ml. A total of 4500 cells were plated in soft agar cloning medium for each condition as previously described [Powell et al. 1995]. Colonies, defined as groups of≧50 cells, were scored after 12 days of incubation. Clonogenic survival in drug-treated samples was expressed as a percentage relative to untreated controls.

The subject of a further assay is p27KIP1. In words: Western analysis of p27KIP1 expression in U937 cells. Type of assay: cell-based, human. The settings on record: 10 nM PMA, FP 50-100 nM, 24 h. As to the method:
as §3, with “Following incubation, blots were developed by enhanced chemiluminescence exposure to Kodak X-OMAT film (Eastman Kodak Co., Rochester, N.Y.) and reprobed with antibodies directed against actin to control for equal loading of protein.” left out
Alternatively, whole cell-pellets were washed twice in PBS, resuspended in PBS, and lysed by the addition of I volume of loading buffer. Lysates were boiled for 10 min, centrifuged at 12,800 g for 5 min and quantified using Coomassie protein assay reagent (Pierce, Rockfold, Ill.). […]

For another assay, the system named is pRb. As to the kind of experiment: Western analysis of underphosphorylated pRb in U937 cells. Type of assay: cell-based, human. As to the method: as §3
(§5) Alternatively, whole cell-pellets were washed twice in PBS, resuspended in PBS, and lysed by the addition of I volume of loading buffer. Lysates were boiled for 10 min, centrifuged at 12,800 g for 5 min and quantified using Coomassie protein assay reagent (Pierce, Rockfold, Ill.). 25 μg of total proteins per point were separated by SDS-PAGE and electro-blotted to nitrocellulose. The blots were blocked in 5% non-fat milk in PBS-T and probed for 1 h with the appropriate dilution of primary antibody. Blots were washed 3×10 min in PBS-T and then incubated with a 1:2000 dilution of peroxidase-conjugated secondary antibody for 1 h at room temperature. Blots were again washed 3×10 min in PBS-T and then developed by enhanced chemiluminesence. Where indicated, blots were stripped and re-probed with antibodies directed against actin.
(§6) Primary antibodies for both p21^WAF1/CIP1 and p27^KIP1 (Transduction Laboratories, Lexington, Ky.) were used in a 1:1000 dilution; PARP (1:1000; Oncogene Research Products, Cambridge, Mass.); pro-caspase 3 (1:1000; Transduction Laboratories); cytochrome c (1:2000; Pharmingen); bcl-2 (1:2000; DAKO, Denmark); bax (1:1000; Santa Cruz Biotechnology, Inc., Santa Cruz, Calif.); bid (1:1000; Cell Signaling, Beverly, Mass.); XIAP (1:1000; Cell Signaling); Mcl-1 (1:1000; Pharmingen); bak (1:1000; Calbiochem); c-Myc (1:1000; Pharmingen, San Diego, Calif.); actin (1:2000; Sigma Chemicals, St. Louis, Mo.); cyclins-D1, -A and -E (1:1000; Pharmingen); pRb, underP-pRb, pRb-CDK2 and pRb-CDK4 (all 1:1000; Pharmingen); Ac-H3 and Ac-H4 (both 1:1000; Upstate Biotechnology, Lake Placid, N.Y.); E2F-1 (Upstate Biotechnology). Secondary antibodies conjugated to horseradish peroxidase were obtained from Kirkegaard and Perry Laboratories, Inc. (Gaithersburg, Md.). Coomassie protein assay reagent was purchased from Pierce (Rockford, Ill.), and an enhanced chemiluminescence kit was obtained from New England Nuclear (Boston, Mass.). The pan-caspase inhibitor BOC-D-fmk and the caspase 8 inhibitor Z-IETD-fmk were purchased from Enzyme System Products (Livermore, Calif.) All other chemicals or reagents were purchased from Sigma.

Another assay deals with p21WAF1/CIP1. In words: Western analysis of p21WAF1/CIP1 expression in U937 cells. It counts as cell-based, human. On the procedure: as §3, §5, §6
Assay [8] relates to U937 cells. In words: plastic adherence (differentiation). As to conditions: 10 nM PMA alone or with FP 100 nM. It counts as cell-based, human. On the procedure: as §4, with “In each experiment, pSV-βgal (Promega), containing the β-galactosidase gene under the control of the constitutively active SV40 promoter and enhancer, was co-transfected with the luciferase reporter at a ratio of 1:5 (w/w) to normalize for transfection efficiency. The cells were incubated overnight in complete media and treated with 10 nM PMA, 100 nM FP, or 10 nM PMA/100 nM FP for 3 or 6 h. At indicated times, cells were washed in serum-free media, resuspended in 0.25M Tris-HCl pH 7.8, lysed by rapid freeze-thaw, centrifuged and the supernatant frozen at −70° C.” left out, “For β-galactosidase activity, lysates (50 μL) were mixed in triplicate with an equal volume of luciferase assay buffer (2×) in a 96-well plate and incubated overnight.” left out

On to `Nc1ccn([C@@H]2O[C@H](CO)[C@@H](O)[C@@H]2O)c(=O)n1` [ara-C, 1-β-D-arabinofuranosylcytosine], for which the “lethal effects in Bcl-2 overexpressing cells” value with U937/Bcl-2 cells is listed as “significantly protected”.

With `O=C(CCCCCCC(=O)Nc1ccccc1)NO` [SAHA, suberoylanilide hydroxamic acid], the cell death result in [1] is on record as “modest levels of cell death”; in [2], “ineffective”. In addition, the cell cycle distribution entry in the assay with U937 cells [3] is “prominent increase in the percentage of cells arresting in G0/G1”.

In the case of `CC1=C(/C=C/C(C)=C/C=C/C(C)=C/C(=O)O)C(C)(C)CCC1` [ATRA, all trans retinoic acid], the “% apoptosis” value in assay [4] is recorded as “minimal effect”.

In the case of `CCCCCCCCCCCCCC(=O)O[C@@H]1[C@@H](C)[C@@]2(O)[C@@H](C=C(CO)C[C@]3(O)C(=O)C(C)=C[C@@H]23)[C@@H]2C(C)(C)[C@]12OC(C)=O` [PMA, phorbol 12-myristate 13-acetate], the “phosphorylation (activation) of ERK1/2” value with ERK1/2 is listed as “increase in phosphorylated ERK1/2”. The “percentage of cells displaying CD11b expression” value in the assay with U937 cells [5] is given as 26%. Moreover, the p21WAF1/CIP1 reporter activity result in assay [6] is “markedly increased”. In the assay with U937 cells [7], the “clonogenic survival, percentage relative to untreated controls” value was 15%. Also, in the assay with p27KIP1, the p27KIP1 expression entry is listed as “slight increase”. Moreover, the “time of pRb dephosphorylation” value in the assay on pRb (10 nM PMA alone) was found to be 3 h. The “full-length underphosphorylated pRb” value with pRb (10 nM PMA, FP 50, 80 or 100 nM, 24 h) was “significant increase”. The p21WAF1/CIP1 expression result with p21WAF1/CIP1 (10 nM PMA, FP 50-100 nM, 24 h) is “significant increase”. Also, the “time to induction of p21WAF1/CIP1 after drug addition” value in the assay on p21WAF1/CIP1 (PMA 10 nM) is no more than 1 h. In addition, the “percentage of cells with plastic adherence” value with U937 cells [8] amounted to 80%.
